Assay [1] concerns adult hippocampal progenitor cells. Nature of the assay: CyQUANT cell proliferation assay (DNA content). Type of assay: cell-based, rat. The note with it: for cells in a well at the end of the experiment: around 6 x 10^3 cells seeded, control well without FGF around 1.5 x 10^5. As for the experimental part:
Proliferation assay. Hippocampal progenitor cells were seeded at 0.2 x 10^4 cells/cm^2 on 24-well plates in culture medium containing human FGF-2 (20ng/ml) and left to grow for 48 h. After a further 48 h of growth without FGF-2, cells were incubated with porcine GIP at different concentrations (Sigma), FGF-2 alone or a combination of both GIP (1 nM) and FGF-2 for 48 h. Cell proliferation assay was performed using the CyQUANT Cell Proliferation Kit (Molecular Probes, Eugene, OR) and a GENios microplate reader (TECAN Austria GmbH, Grödig, Austria) according to the instructions of the manufacturer.

For assay [2] the test system is unchanged. Kind of assay: methyl-[3H]-thymidine incorporation assay. Type of assay: cell-based, rat. The note with it: 24 h, n = 12. As for the experimental part:
Thymidin-assay. Hippocampal progenitor cells were seeded at 0.5 x 10^4 cells/cm^2 on 48-well plates in culture medium and left to grow for 48 h. The cells were then labeled with methyl-[^3H]-thymidine and incubated with GIP (1 nM) or FGF-2 (20ng/ml) for 24 h. Cells were lysed in 0.4 M NaOH, transferred to scint vials, mixed with 0.4 M HCl and assayed for DNA synthesis by scintillation spectrometry. The mean for each experiment was calculated from four different culture wells and each experiment was performed 12 times.

For assay [3] the test system is unchanged. Kind of assay: Apop-Tag staining for apoptotic or dead cells. Type of assay: cell-based, rat. The note with it: control 3.31 + 0.67%. How it is done:
Apop-Tag. Hippocampal progenitor cells were seeded at 1 x 10^4 cells/cm^2 on glass coverslips and treated the same way as for the proliferation assay and incubated with GIP (1 nM) or FGF-2 (20 ng/ml). Cells were fixed and stained for apoptosis according to the Apop Tag kit user manual (Apop Tag S160 direct, Intergene Company, Purchase, NY, USA). A negative control without TdT-enzyme was included and positive controls with addition of H2O2 (100 µM and 1 mM) and DNase I (1 µg/ml) was included. In the last washing step the cells were incubated with the nuclear dye bisBenzimide (Hoechst 33258, Sigma) for 30 min. Apoptotic or dead cells were identified by green fluorescence in the nuclei and Hoechst nuclear dye was used to discriminate total number of cells. Three coverslips per experiment was stained from four different experiments. Positive cells was quantified by scoring the immunoreactivity of 1000–3000 cells systematically observed in 6 nonoverlapping fields in each coverslip.

Assay [4] has the same test system. Nature of the assay: LDH release from dying cells. Type of assay: cell-based, rat. The settings on record: GIP 1 nM or FGF-2 20 ng/ml. How it is done:
LDH-activity. Release of lactate dehydrogenase (LDH) from dying cells was measured using a routine photometric method (Dept. of Clinical Chemistry, Sahlgrenska University Hospital, Sweden). Cell culture medium was collected from culture wells seeded for the Apop Tag staining (see above). . The mean for each experiment was calculated from three different culture wells and each experiment was performed 4 times. The coefficient of variation for the assay was 1.7 % and the assay standard curve was linear for enzyme activities between 0.1–20 µkat/ dm^3.

Assay [5] has as its system hippocampal progenitor cells in adult rat DG. Nature of the assay: Intracerebroventricular GIP infusion, BrdU-positive cell count in granule cell layer of dentate gyrus. Type of assay: in vivo. The settings on record: adult male SD rats, i.c.v. 1.92 nmol/day for 5 days. As for the experimental part: Intracerebroventricular GIP infusion. Adult male SD rats (260-280 g; B&K Universal, Sweden) were intubated and ventilated with isoflurane in an O2/N2O mix (30:70). An infusion cannula connected to an osmotic pump (Alzet brain infusion kit II and Alzet 2001 osmotic pump, Alza Scientific Products, Palo Alto, CA) was placed in the 3rd cerebral ventricle (0.3 mm posterior from Bregma along the midline, 5 mm below skull surface). Each rat was infused (1 µl/hr) for 5 days with either GIP (1.92 nmol/day; n = 5) or vehicle (0.1 M PBS; n = 6) and sacrificed the last day. All animals received a single daily intraperitoneal injection of Bromodeoxyuridine (BrdU; 50 mg/kg of body weight; Boehringer Mannheim; Scandinavia AB, Bromma, Sweden).
Immunohistochemistry and cellcounting. Brains were sectioned and stained for BrdU using a primary mouse BrdU antibody (1:400, Boeringer Mannheim) and biotinylated horse anti-mouse IgG (1:125) secondary antibodies (Vector Laboratories, Burlingame, CA) as previously described^11. For each animal, the total number of BrdU-positive cells in the granule cell layer, including the subgranular layer, and their corresponding sample volume were determined in 12 immunoperoxidase-stained, 40-µm-thick coronal sections taken 240 µm apart. […] Results are expressed as BrdU-positive cells per sample volume.
Statistics. […] All values are expressed as the means ± SEM.

Assay [6] is described as follows: Effect on weight gain after intraventricular infusion in the brain. Type of assay: in vivo, rat. The note with it: male Sprague-Dawley rats, 1.92 nmol/day intraventricularly, 5 days. How it is done:
Rats (male Sprague-Dawley) were given either GIP (6 rats, 1.92 nmol/day) or phosphate buffered saline (PBS) as control-solution (7 rats), intraventricularly in the brain by osmotic mini-pumps. The rats were given substance during five days, and then sacrificed.
The weight of each rat was recorded and the total weight gain during the five days calculated.

On to “FGF-2: human fibroblast growth factor-2, a well-documented proliferative agent of these cells [reference compound]”, for which, in assay [1] (FGF-2 20 ng/ml alone, 48 h, n = 4), the “increase in cell proliferation relative to control” value was 112.3 ± 20%. Also, the “cells in a well at the end of the experiment” value in assay [1] is given as ~3 x 10^5 cells. Also, the “increase in thymidin incorporation compared to control” value in assay [2] (FGF-2 20 ng/ml) is recorded as 60.1 ± 7.1%. In addition, the cell death in assay [3] (FGF-2 20 ng/ml) is on record as 0.96 + 0.21%. Besides, the “extracellular level of released LDH compared with controls” value in assay [4] is reported as “no statistical difference”.
For the substance “GIP: 42 amino acid gastric inhibitory polypeptide; porcine GIP (Sigma) used in the cell assays (YAEGTFISDYSIAMDKIRQQDFVNWLLAQKGKKSDWKHNITQ; Gastric inhibitory polypeptide synthetic; UniProt P01281 1-42, looked up)”, the proliferative effect entry in assay [1] (GIP 0.1 pM, 48 h) was “absent”. In assay [1] (GIP 1 nM vs FGF-2 20 ng/ml), the “proliferative effect compared with FGF-2” value is “slightly more than half”. In assay [1] (GIP 1 nM, 48 h, n = 8), the “increase in cell proliferation relative to control” value was 74.5 ± 14.4%. Further, the “rate of cell proliferation, dose-dependent” value in assay [1] (GIP doses from 1 pM to 0.1 µM, 48 h) was “significant increases”. Also, in assay [1], the “cells in a well at the end of the experiment” value is given as ~2.5 x 10^5 cells. For the same substance, the “increase in thymidin incorporation compared to control” value in assay [2] (GIP 1 nM) amounted to 32.4 ± 3.3%. In addition, the “cell death compared with control” value in assay [3] (GIP 1 nM) was “not statistically different”. In assay [4], the “extracellular level of released LDH compared with controls” value is reported as “no statistical difference”. The “number of BrdU+ cells in the granule cell layer” value in assay [5] (n = 5, PBS 14986 ± 1831) is 27969 ± 5795 cells/mm^3. For the same substance, in assay [5] (p < 0.05), the “increase in BrdU-positive cells versus PBS-treated animals” value is given as 86%. Besides, the “weight gain as % of the weight gain seen in the PBS treated rats” value in assay [6] is on record as 63%. The “total weight gain during the five days” value in assay [6] (PBS 28.5g) is reported as 17.9 g.

Source of the values: US20060084597A2, “USE OF COMPOUNDS HAVING GIP ACTIVITY FOR THE TREATMENT OF DISORDERS ASSOCIATED WITH ABNORMAL LOSS OF CELLS AND/OR FOR THE TREATMENT OF OBESITY” (Eisai Co., Ltd., priority 2002, published 2006).
